# Assays:
# Type in all cases: biochemical
# LRRK2 = LRRK2 (Homo sapiens (Human), UniProt Q5S007); assay: LRRK2 Kinase Assay; details: 10 μM ATP
# Procedure: (§1) Briefly, specific kinase/substrate pairs along with required cofactors were prepared in reaction buffer; 20 mM Hepes (pH 7.5), 10 mM MgCl2, 1 mM EGTA, 0.02% Brij35, 0.02 mg/ml BSA, 0.1 mM Na3VO4, 2 mM DTT, 1% DMSO. Compounds were delivered into the reaction, followed ˜20 min later by addition of a mixture of ATP (Sigma) and 33P ATP (PerkinElmer) to a final concentration of 10 μM. […] IC50 values and curve fits were obtained using Prism (GraphPad Software). Kinome tree representations were prepared using Kinome Mapper (http://www.reactionbiology.com/apps/kinome/mapper/Launch Kinome.htm).
# For the wild type LRRK the 2×LRRK2/ERM (LRRKtide) mixture was prepared in 50 mM Tris pH 8.5, 0.01% BRIJ-35, 10 mM MgCl2, 1 mM EGTA, 0.02% NaN3. […] After 1 hour Kinase Reaction incubation, 5 μL of Detection Mix was added.
# LRRK2 G2019S = LRRK2 G2019S (Homo sapiens (Human), UniProt Q5S007, G2019S); assay: LRRK2 G2019S Kinase Assay; details: 10 μM ATP
# LRRK2 G2019S, sequence (Q5S007 970-2527 G2019S): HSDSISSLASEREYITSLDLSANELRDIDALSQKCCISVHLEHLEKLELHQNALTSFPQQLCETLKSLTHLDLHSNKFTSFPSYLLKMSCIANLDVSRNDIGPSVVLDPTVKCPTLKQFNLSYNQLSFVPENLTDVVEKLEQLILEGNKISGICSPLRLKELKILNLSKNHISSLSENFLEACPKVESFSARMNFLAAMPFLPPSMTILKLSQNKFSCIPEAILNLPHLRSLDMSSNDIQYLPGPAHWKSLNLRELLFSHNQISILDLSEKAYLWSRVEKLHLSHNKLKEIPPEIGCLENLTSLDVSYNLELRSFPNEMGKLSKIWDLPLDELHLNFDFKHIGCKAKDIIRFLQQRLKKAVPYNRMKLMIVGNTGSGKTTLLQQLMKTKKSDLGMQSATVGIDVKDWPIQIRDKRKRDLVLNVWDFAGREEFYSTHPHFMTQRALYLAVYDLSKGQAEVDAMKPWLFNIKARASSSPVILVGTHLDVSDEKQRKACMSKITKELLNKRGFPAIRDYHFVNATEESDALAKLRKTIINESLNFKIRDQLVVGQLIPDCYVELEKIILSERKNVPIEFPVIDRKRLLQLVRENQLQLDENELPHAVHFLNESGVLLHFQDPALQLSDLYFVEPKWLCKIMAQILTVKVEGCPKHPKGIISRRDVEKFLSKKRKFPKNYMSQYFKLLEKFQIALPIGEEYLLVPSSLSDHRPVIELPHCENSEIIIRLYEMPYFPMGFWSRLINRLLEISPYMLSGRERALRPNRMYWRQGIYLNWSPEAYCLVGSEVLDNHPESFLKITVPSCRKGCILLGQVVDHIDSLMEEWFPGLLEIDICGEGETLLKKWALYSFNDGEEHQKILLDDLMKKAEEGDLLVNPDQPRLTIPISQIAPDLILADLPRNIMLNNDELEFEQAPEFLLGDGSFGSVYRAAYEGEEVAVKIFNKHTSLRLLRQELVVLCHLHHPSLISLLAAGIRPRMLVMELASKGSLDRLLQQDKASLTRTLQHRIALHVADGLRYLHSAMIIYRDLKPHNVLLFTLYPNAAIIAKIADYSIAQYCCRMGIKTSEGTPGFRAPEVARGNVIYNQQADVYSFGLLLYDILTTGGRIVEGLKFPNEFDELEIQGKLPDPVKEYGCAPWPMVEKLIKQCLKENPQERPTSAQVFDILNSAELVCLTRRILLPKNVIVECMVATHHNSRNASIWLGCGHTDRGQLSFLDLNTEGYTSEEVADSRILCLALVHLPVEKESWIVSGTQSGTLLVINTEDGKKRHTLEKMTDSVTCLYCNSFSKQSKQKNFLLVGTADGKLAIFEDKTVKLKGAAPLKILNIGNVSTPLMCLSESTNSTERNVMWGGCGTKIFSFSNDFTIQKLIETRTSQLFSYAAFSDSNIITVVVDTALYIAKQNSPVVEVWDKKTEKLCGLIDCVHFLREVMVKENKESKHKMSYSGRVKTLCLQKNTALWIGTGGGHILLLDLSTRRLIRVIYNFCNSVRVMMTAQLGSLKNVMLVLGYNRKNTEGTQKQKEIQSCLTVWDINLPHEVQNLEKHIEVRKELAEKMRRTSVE
# Procedure: Procedure: Enzyme was incubated with substrate peptide in reaction buffer in the presence and absence of test compounds or Staurosporine. All additions were done on ice, followed by the addition of ATP mix. Wells were uniformly mixed using an Eppendorff plate shaker and incubated at 30° C. for 20 min, and stopped by the addition of 5 μl of 3% phosphoric acid. Volume was increased to 100 μl by adding 0.8% phosphoric acid which was then transferred to PC filter mats (Millipore), pre-equilibrated with 70% ethanol and water. Plates were washed thrice with 100 μl 0.8% phosphoric acid and dried for an hour at 60° C. 100 μl scintillation fluid was added into each well and reading taken in Perkin Elmer TOPCOUNT beta counter. […] A validation EC50 curve was generated by plotting CPM for each Staurosporine concentration on y-axis against the Log concentration of Staurosporine (nM) on the x-axis followed by a best fit curve through the points.
# After 1 hour Kinase Reaction incubation, 5 μL of Detection Mix was added.
# DYRK1A = DYRK1A (Homo sapiens (Human), UniProt Q13627); assay: In vitro DYRK1A inhibition assay
# Procedure: as §1
# The 2×DYRK1A/Ser/Thr 18 mixture was prepared in 50 mM HEPES pH 7.5, 0.01% BRIJ-35, 10 mM MgCl2, 1 mM EGTA.
# LRRK2, sequence (Q5S007 970-2527): as the sequence (Q5S007 970-2527 G2019S) above, with S1050G counted along it
Compound,IC50 (LRRK2) [nM],IC50 (LRRK2 G2019S) [nM],IC50 (DYRK1A) [nM]
"Cc1n[nH]c2ncc(-c3cncc(C(=O)N4CCCCC4)n3)cc12 [Compound 77, (6-(3-methyl-1H-pyrazolo[3,4-b]pyridin-5-yl)pyrazin-2-yl)(piperidin-1-yl)metha-none]",> 500,> 500,> 1000
"Cc1n[nH]c2ncc(-c3cncc(NC4CCN(CCO)CC4)n3)cc12 [Compound 81, 2-(4-((6-(3-methyl-1H-pyrazolo[3,4-b]pyridin-5-yl)pyrazin-2-yl)amino)piperidin-1-yl)ethanol]",< 500,< 500,< 500
"Cc1n[nH]c2ncc(-c3cncc(N4CCNC(=O)C4)n3)cc12 [Compound 83, 4-(6-(3-methyl-1H-pyrazolo[3,4-b]pyridin-5-yl)pyrazin-2-yl)piperazin-2-one]",> 500,> 500,> 500
"Cc1n[nH]c2ncc(-c3cncc(NC4CCN(C(C)C)CC4)n3)cc12 [Compound 87, N-(1-isopropylpiperidin-4-yl)-6-(3-methyl-1H-pyrazolo[3,4-b]pyridin-5-yl)pyrazin-2-amine]",> 500,> 500,> 500
"Cc1n[nH]c2ncc(-c3cncc(N4CCc5ccccc54)n3)cc12 [Compound 90, 5-(6-(indolin-1-yl)pyrazin-2-yl)-3-methyl-1H-pyrazolo[3,4-b]pyridine]",< 500,< 500,< 500
"Cc1n[nH]c2ncc(-c3cncc(Nc4cccc(N5CCCC5=O)c4)n3)cc12 [Compound 94, 1-(3-((6-(3-methyl-1H-pyrazolo[3,4-b]pyridin-5-yl)pyrazin-2-yl)amino)phenyl)pyrrolidin-2-one]",< 500,< 500,> 500
"Cc1n[nH]c2ncc(-c3cccc(NC4CCN(C)CC4)c3)cc12 [Compound 98, 1-methyl-N-(3-(3-methyl-1H-pyrazolo[3,4-b]pyridin-5-yl)phenyl)piperidin-4-amine]",> 1000,> 1000,> 1000
"Cc1n[nH]c2ncc(-c3cccc(NC4CCN(C)CC4)n3)cc12 [Compound 102, 6-(3-methyl-1H-pyrazolo[3,4-b]pyridin-5-yl)-N-(1-methylpiperidin-4-yl)pyridin-2-amine]",> 500,> 500,> 500
"Cc1n[nH]c2ncc(-c3cnn(C)c3)cc12 [Compound 108, 3-methyl-5-(1-methyl-1H-pyrazol-4-yl)-1H-pyrazolo[3,4-b]pyridine]",> 500,> 500,> 500
"CN1CCN(c2cncc(-c3cnc4[nH]ccc4c3)n2)CC1 [Compound 125, 5-(6-(4-methylpiperazin-1-yl)pyrazin-2-yl)-1H-pyrrolo[2,3-b]pyridine]",< 500,< 500,< 500
"OCCN1CCN(c2cncc(-c3cnc4[nH]ccc4c3)n2)CC1 [Compound 126, 2-(4-(6-(1H-pyrrolo[2,3-b]pyridin-5-yl)pyrazin-2-yl)piperazin-1-yl)ethanol]",< 500,< 500,< 500
"CN(C)CCNc1cncc(-c2cnc3[nH]ccc3c2)n1 [Compound 127, N1-(6-(1H-pyrrolo[2,3-b]pyridin-5-yl)pyrazin-2-yl)-N2,N2-dimethylethane-1,2-diamine]",> 500,> 500,> 500
"c1cnc(N2CCCC2)c(-c2cnc3[nH]ccc3c2)n1 [Compound 128, 5-(3-(pyrrolidin-1-yl)pyrazin-2-yl)-1H-pyrrolo[2,3-b]pyridine]",> 500,> 500,> 500
"O=C1CCCN1c1cncc(-c2cnc3[nH]ccc3c2)n1 [Compound 131, 1-(6-(1H-pyrrolo[2,3-b]pyridin-5-yl)pyrazin-2-yl)pyrrolidin-2-one]",> 500,> 500,> 500
"FC1(F)CCN(c2cncc(-c3cnc4[nH]ccc4c3)n2)C1 [Compound 135, 5-(6-(3,3-difluoropyrrolidin-1-yl)pyrazin-2-yl)-1H-pyrrolo[2,3-b]pyridine]",> 500,> 500,> 500
"OC1CCN(c2cncc(-c3cnc4[nH]ccc4c3)n2)CC1 [Compound 137, 1-(6-(1H-pyrrolo[2,3-b]pyridin-5-yl)pyrazin-2-yl)piperidin-4-ol]",< 500,< 500,< 500
"CN(CC1CCOCC1)c1cncc(-c2cnc3[nH]ccc3c2)n1 [Compound 143, N-methyl-6-(1H-pyrrolo[2,3-b]pyridin-5-yl)-N-((tetrahydro-2H-pyran-4-yl)methyl)pyrazin-2-amine]",< 500,< 500,< 500
"CN(CC1CCOCC1)c1cncc(-c2cnc3[nH]cc(Cl)c3c2)n1 [Compound 144, 6-(3-chloro-1H-pyrrolo[2,3-b]pyridin-5-yl)-N-methyl-N-((tetrahydro-2H-pyran-4-yl)methyl)pyrazin-2-amine]",< 500,< 500,< 500
"CN(CC1CCOCC1)c1cncc(-c2cnc3[nH]cc(F)c3c2)n1 [Compound 145, 6-(3-fluoro-1H-pyrrolo[2,3-b]pyridin-5-yl)-N-methyl-N-((tetrahydro-2H-pyran-4-yl)methyl)pyrazin-2-amine]",< 500,< 500,< 500
"Clc1c[nH]c2ncc(-c3cncc(N4CCOCC4)n3)cc12 [Compound 149, 4-(6-(3-chloro-1H-pyrrolo[2,3-b]pyridin-5-yl)pyrazin-2-yl)morpholine]",< 500,< 500,< 500
"Fc1c[nH]c2ncc(-c3cncc(N4CCOCC4)n3)cc12 [Compound 150, 4-(6-(3-fluoro-1H-pyrrolo[2,3-b]pyridin-5-yl)pyrazin-2-yl)morpholine]",< 500,< 500,< 500
"CN1CCN(Cc2cccc(-c3cnc4[nH]ccc4c3)c2)CC1 [Compound 152, 5-(3-((4-methylpiperazin-1-yl)methyl)phenyl)-1H-pyrrolo[2,3-b]pyridine]",< 500,< 500,< 500
"COc1ccccc1-c1n[nH]c2ncc(-c3ccsc3)cc12 [Compound 183, 3-(2-methoxyphenyl)-5-(thiophen-3-yl)-1H-pyrazolo[3,4-b]pyridine]",< 500,< 500,< 500
"COc1ccccc1-c1n[nH]c2ncc(-c3ccoc3)cc12 [Compound 184, 5-(furan-3-yl)-3-(2-methoxyphenyl)-1H-pyrazolo[3,4-b]pyridine]",< 500,< 500,< 500

# — US9669028B2, “Substituted 5-(pyrazin-2-yl)-1H-pyrazolo [3, 4-B] pyridine and pyrazolo [3, 4-B] pyridine derivatives as protein kinase inhibitors” (Arrien Pharmaceuticals LLC, priority 2011, dated 2017)
